Values quoted from earlier work as cited in patent US20250248432A1, “MIXTURE COMPRISING D-ALLULOSE AND TASTE MODIFYING COMPOUNDS” (SYMRISE AG, priority 2019, published 2025).

Details: relative to sucrose

Structure (SMILES): O=C(CO)C(O)C(O)C(O)CO [Allulose, D-allulose]
- sweetness intensity of sucrose: about 70%
